Experimental data from US20120214862A1, “MODULATION OF FACTOR 7 EXPRESSION” (ISIS Pharmaceuticals, Inc., priority 2009, published 2012).
In the oligonucleotide strings, read from the 5' end, every base follows the letter of its sugar. An asterisk marks phosphorothioate; unmarked linkages are phosphodiester. Other units and linkages are bracketed, terminal groups are in braces. A string of capitals states the bases alone. e = 2'-O-(2-methoxyethyl) (MOE); [5mC] = 5-methylcytosine; d = 2'-deoxy (DNA)

Tests used:
[1] = test system: intrinsic pathway of blood coagulation; experiment: Activated Partial Thromboplastin Time (aPTT) in platelet poor plasma of treated mice, reported as INR; assay type: in vivo, mouse
Procedure: (§1) Prothrombin Time (PT) and Activated Partial Thromboplastin Time (aPTT) were measured using platelet poor plasma (PPP) from mice treated with ISIS 403102. PT and aPTT values provided in Table 20 are reported as International Normalized Ratio (INR) values. INR values for PT and aPTT were determined by dividing the PT or aPTT value for the experimental group by the PT or aPTT for the PBS treated group. This ratio was then raised to the power of the International Sensitivity Index (ISI) of the tissue factor used.
as §1, with “in Table 22 are reported” for “in Table 20 are reported”, “experimental group (i.e. 50 mg/kg treatment with ISIS 403102) by the” for “experimental group by the”
as §1, with “in Table 24 are reported” for “in Table 20 are reported”, “experimental group (i.e. 50 mg/kg treatment with ISIS 403102) by the” for “experimental group by the”

human Factor 7 mRNA [2] = experiment: Dose-dependent antisense inhibition of human Factor 7 in HepB3 cells, transfection with electroporation; assay type: cell-based
Outline: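 HepB3 cells, 20,000/well, electroporated with gapmers at 3.125–100 μM; about 16 h treatment. Factor 7 mRNA by qRT-PCR with primer probe set RTS 2927, normalized to RIBOGREEN total RNA; percent inhibition versus untreated cells.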

human Factor 7 mRNA [3] = experiment: Inhibition of human Factor 7 mRNA by 2-10-2 MOE shortmers in HepB3 cells, electroporation, 1,000 nM; assay type: cell-based; settings: electroporation, 1,000 nM oligonucleotide, approximately 24 hours, relative to untreated control cells
Outline: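 14-mer 2-10-2 2′-MOE gapmers, full phosphorothioate, 5-methylcytidines, electroporated at 1,000 nM into HepB3 cells (20,000/well). After ~24 h, mRNA quantified by real-time RT-PCR, normalized to RIBOGREEN total RNA; percent inhibition relative to untreated cells.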

[4] = 3.125 μM, 16 hours (Example 7, Table 15)
[5] = 3.125 μM, 16 hours (Example 8, Table 16)
[6] = 6.25 μM, 16 hours (Example 7, Table 15)
[7] = 6.25 μM, 16 hours (Example 8, Table 16)
[8] = 12.5 μM, 16 hours (Example 7, Table 15)
[9] = 12.5 μM, 16 hours (Example 8, Table 16)
[10] = 25 μM, 16 hours (Example 7, Table 15)
[11] = 25 μM, 16 hours (Example 8, Table 16)
[12] = 50 μM, 16 hours (Example 7, Table 15)
[13] = 50 μM, 16 hours (Example 8, Table 16)
[14] = 100 μM, 16 hours (Example 7, Table 15)
[15] = 100 μM, 16 hours (Example 8, Table 16)

CCATAGAACAGCTTCACAGG (sugars from the 5' end e5 d10 e5, backbone and methylation of C not given here) [ISIS 403102]
aPTT INR ([1]; BALB/c mice, 5 mg/kg s.c. twice a week for 3 weeks): 1.05 | aPTT INR ([1]; BALB/c mice, 10 mg/kg s.c. twice a week for 3 weeks): 1.04 | aPTT INR ([1]; BALB/c mice, 25 mg/kg s.c. twice a week for 3 weeks): 1.09 | aPTT INR ([1]; BALB/c mice, 50 mg/kg s.c. twice a week for 3 weeks): 1.16 | aPTT INR ([1]; BALB/c mice, 50 mg/kg, 1 dose, 1 day after last dose): 1.08 | aPTT INR ([1]; BALB/c mice, 50 mg/kg, 1 dose, 3 days after last dose): 1.10 | aPTT INR ([1]; BALB/c mice, 50 mg/kg, 2 doses, 3 days after last dose): 1.29 | aPTT INR ([1]; BALB/c mice, 50 mg/kg, 4 doses, 3 days after last dose): 1.53 | aPTT INR ([1]; BALB/c mice, 50 mg/kg, 6 doses, 2 days after last dose): 1.62 | aPTT INR ([1]; BALB/c mice, 50 mg/kg, 6 doses, 7 days after last dose): 1.67 | aPTT INR ([1]; BALB/c mice, 50 mg/kg, 6 doses, 14 days after last dose): 1.25 | aPTT INR ([1]; BALB/c mice, 50 mg/kg, 6 doses, 28 days after last dose): 0.90 | aPTT INR ([1]; BALB/c mice, 50 mg/kg, 6 doses, 42 days after last dose): 1.00 | aPTT INR ([1]; BALB/c mice, 50 mg/kg, 6 doses, 56 days after last dose): 0.98 | aPTT INR ([1]; BALB/c mice, single dose 50 mg/kg, day 1): 1.00 | aPTT INR ([1]; BALB/c mice, single dose 50 mg/kg, day 2): 1.05 | aPTT INR ([1]; BALB/c mice, single dose 50 mg/kg, day 3): 1.24 | aPTT INR ([1]; BALB/c mice, single dose 50 mg/kg, day 4): 1.15 | aPTT INR ([1]; BALB/c mice, single dose 50 mg/kg, day 6): 1.23 | aPTT INR ([1]; BALB/c mice, single dose 50 mg/kg, day 8): 1.18 | aPTT INR ([1]; BALB/c mice, single dose 50 mg/kg, day 12): 1.18 | aPTT INR ([1]; BALB/c mice, single dose 50 mg/kg, day 24): 1.02 | aPTT INR ([1]; BALB/c mice, single dose 50 mg/kg, day 56): 0.97 | aPTT compared to the control ([1]; Example 11, 5-50 mg/kg sc twice a week for 3 weeks): slightly prolonged | aPTT over time ([1]; Example 13, 6 doses, day 7 to day 56): aPTT decreased | aPTT INR ([1]; single dose 50 mg/kg, day 4): 1.24 INR | aPTT INR ([1]; single dose 50 mg/kg, day 56): 0.97 INR | aPTT INR ([1]; single dose 50 mg/kg, starting value (day not given, day 1 implied)): 1.00 INR

407935 (antisense eA*eT*eG*e[5mC]*eA*dT*dG*dG*dT*dG*dA*dT*dG*d[5mC]*dT*eT*e[5mC]*eT*eG*eA) [compound 407935]
percent inhibition of Factor 7 mRNA, relative to untreated control cells (human Factor 7 mRNA [2]; [4]): 37% | percent inhibition of Factor 7 mRNA, relative to untreated control cells (human Factor 7 mRNA [2]; [5]): 63% | percent inhibition of Factor 7 mRNA, relative to untreated control cells (human Factor 7 mRNA [2]; [6]): 47% | percent inhibition of Factor 7 mRNA, relative to untreated control cells (human Factor 7 mRNA [2]; [7]): 79% | percent inhibition of Factor 7 mRNA, relative to untreated control cells (human Factor 7 mRNA [2]; [8]): 67% | percent inhibition of Factor 7 mRNA, relative to untreated control cells (human Factor 7 mRNA [2]; [9]): 84% | percent inhibition of Factor 7 mRNA, relative to untreated control cells (human Factor 7 mRNA [2]; [10]): 73% | percent inhibition of Factor 7 mRNA, relative to untreated control cells (human Factor 7 mRNA [2]; [11]): 90% | percent inhibition of Factor 7 mRNA, relative to untreated control cells (human Factor 7 mRNA [2]; [12]): 80% | percent inhibition of Factor 7 mRNA, relative to untreated control cells (human Factor 7 mRNA [2]; [13]): 90% | percent inhibition of Factor 7 mRNA, relative to untreated control cells (human Factor 7 mRNA [2]; [14]): 87% | percent inhibition of Factor 7 mRNA, relative to untreated control cells (human Factor 7 mRNA [2]; [15]): 91%

407939 (antisense eT*eG*e[5mC]*eA*eG*d[5mC]*d[5mC]*d[5mC]*dG*dG*d[5mC]*dA*d[5mC]*d[5mC]*d[5mC]*eA*eG*e[5mC]*eG*eA) [compound 407939]
% inhibition of human Factor 7 mRNA (human Factor 7 mRNA [3]): 81% | percent inhibition of Factor 7 mRNA, relative to untreated control cells (human Factor 7 mRNA [2]; [4]): 18% | percent inhibition of Factor 7 mRNA, relative to untreated control cells (human Factor 7 mRNA [2]; [5]): 35% | percent inhibition of Factor 7 mRNA, relative to untreated control cells (human Factor 7 mRNA [2]; [6]): 28% | percent inhibition of Factor 7 mRNA, relative to untreated control cells (human Factor 7 mRNA [2]; [7]): 60% | percent inhibition of Factor 7 mRNA, relative to untreated control cells (human Factor 7 mRNA [2]; [8]): 42% | percent inhibition of Factor 7 mRNA, relative to untreated control cells (human Factor 7 mRNA [2]; [9]): 60% | percent inhibition of Factor 7 mRNA, relative to untreated control cells (human Factor 7 mRNA [2]; [10]): 56% | percent inhibition of Factor 7 mRNA, relative to untreated control cells (human Factor 7 mRNA [2]; [11]): 73% | percent inhibition of Factor 7 mRNA, relative to untreated control cells (human Factor 7 mRNA [2]; [12]): 68% | percent inhibition of Factor 7 mRNA, relative to untreated control cells (human Factor 7 mRNA [2]; [13]): 81% | percent inhibition of Factor 7 mRNA, relative to untreated control cells (human Factor 7 mRNA [2]; [14]): 82% | percent inhibition of Factor 7 mRNA, relative to untreated control cells (human Factor 7 mRNA [2]; [15]): 83%
